Structures are written as SMILES.

The subject of data set [1] is Hepatotoxicity.
Description: Drug Induced Liver Injury Prediction System (DILIps) validation dataset; compound DILI positive/negative as observed in O'Brien data
In data set [2] the test system is Hepatotoxicity. The source holds these as a separate data set.
Description: Drug Induced Liver Injury Prediction System (DILIps) validation dataset; compound DILI positive/negative as observed in Pfizer data
In data set [3] the test system is Hepatotoxicity. This is another data set of the same source.
Description: Drug Induced Liver Injury Prediction System (DILIps) validation dataset; compound DILI positive/negative as observed in LTKB-BD

For the compound `CN(C)CCN(Cc1cccs1)c1ccccn1`, the DILI positive/negative in the data set with Hepatotoxicity [1] and in the data set on Hepatotoxicity [2] was 1 each time.

On to `CC1=C(/C=C/C(C)=C/C=C/C(C)=C\C(=O)O)C(C)(C)CCC1` [ISOTRETINOIN], for which the DILI positive/negative with Hepatotoxicity [1] and in the data set with Hepatotoxicity [2] was 1 throughout.

Take `Nc1ccc(C(=O)O)c(O)c1` [AMINOSALICYLIC ACID]: the DILI positive/negative with Hepatotoxicity [3], with Hepatotoxicity [1] and with Hepatotoxicity [2] was 1 in each case.

`CCOC(=O)C(C)(C)Oc1ccc(Cl)cc1` [CLOFIBRATE]: the DILI positive/negative with Hepatotoxicity [1] and with Hepatotoxicity [2] was 1 in each case.

As to `CC(N/C(=N\C#N)Nc1ccncc1)C(C)(C)C` (stereo unspecified) [PINACIDIL ANHYDROUS], the DILI positive/negative in the data set on Hepatotoxicity [1] and with Hepatotoxicity [2] was 0 throughout.

As for `O=C1OCCN1/N=C/c1ccc([N+](=O)[O-])o1` [FURAZOLIDONE], the DILI positive/negative in the data set with Hepatotoxicity [1] and in the data set with Hepatotoxicity [2] was 1 in each case.

`C[S+](C)[O-]` [DIMETHYL SULFOXIDE] came in with a DILI positive/negative with Hepatotoxicity [1] of 0.

In the case of `Cc1ncc(CO)c(CO)c1O` [PYRIDOXINE], the DILI positive/negative with Hepatotoxicity [1] (Liver) and with Hepatotoxicity [2] (Liver) was 0 each time.

As for `CC[N+](C)(CC)CCOC(=O)C(O)(c1ccccc1)C1CCCCC1` (stereo unspecified) [OXYPHENONIUM], the DILI positive/negative with Hepatotoxicity [1] and in the data set with Hepatotoxicity [2] was 0 in each case.

In the data set on Hepatotoxicity [1] (Liver), `CCN(CC)Cc1cc(Nc2ccnc3cc(Cl)ccc23)ccc1O.Cl` yielded a DILI positive/negative of 1.

As for `CC(C(=O)O)c1ccc(N2CC=CC2)c(Cl)c1` (stereo unspecified) [PIRPROFEN], the DILI positive/negative with Hepatotoxicity [3] and with Hepatotoxicity [2] was 1 each time.

Turning to `O=c1[nH]c(=O)n([C@@H]2O[C@H](CO)[C@@H](O)[C@@H]2F)cc1I` [FIALURIDINE], the DILI positive/negative in the data set on Hepatotoxicity [3], with Hepatotoxicity [1] and in the data set with Hepatotoxicity [2] was 1 throughout.

As for `Cc1nnc(NS(=O)(=O)c2ccc(N)cc2)s1` [SULFAMETHIZOLE], the DILI positive/negative in the data set on Hepatotoxicity [1] and with Hepatotoxicity [2] was 1 in each case.

With `C[C@@](Cc1ccc(O)c(O)c1)(NN)C(=O)O.O` [CARBIDOPA], the DILI positive/negative in the data set with Hepatotoxicity [3] was 1; with Hepatotoxicity [1] it was 0; in the data set with Hepatotoxicity [2] it was 0.

Turning to `CC(c1cc2ccccc2s1)N(O)C(N)=O` (stereo unspecified) [ZILEUTON], the DILI positive/negative in the data set with Hepatotoxicity [3], in the data set with Hepatotoxicity [1] and with Hepatotoxicity [2] was 1 in each case.

As to `Cc1ncc(C[n+]2csc(CCO)c2C)c(N)n1` [THIAMINE ION], the DILI positive/negative in the data set with Hepatotoxicity [1] (Liver) and in the data set with Hepatotoxicity [2] (Liver) was 0 in each case.

In turn, `CCN(CC)CCCC(C)Nc1c2ccc(Cl)cc2nc2ccc(OC)cc12` (stereo unspecified) [QUINACRINE] showed a DILI positive/negative in the data set with Hepatotoxicity [1] of 1.

Compound `C=C1c2cccc(O)c2C(=O)C2=C(O)[C@]3(O)C(=O)C(C(N)=O)=C(O)[C@@H](N(C)C)[C@@H]3[C@@H](O)[C@H]12` [METHACYCLINE] yielded a DILI positive/negative in the data set on Hepatotoxicity [1] of 1.

Regarding `CO[C@@H]1[C@@H](OC(N)=O)[C@@H](O)[C@H](Oc2ccc3c(O)c(NC(=O)c4ccc(O)c(CC=C(C)C)c4)c(=O)oc3c2C)OC1(C)C` [NOVOBIOCIN], the DILI positive/negative in the data set with Hepatotoxicity [1] and with Hepatotoxicity [2] was 1 each time.

On to `CC(=O)Nc1ccc(O)cc1` [ACETAMINOPHEN], for which the DILI positive/negative with Hepatotoxicity [1] and with Hepatotoxicity [2] was 1 in each case.

In the case of `CCCCC1C(=O)N(c2ccccc2)N(c2ccccc2)C1=O` [PHENYLBUTAZONE], the DILI positive/negative with Hepatotoxicity [1] (Liver) and with Hepatotoxicity [2] (Liver) was 1 in each case.

For `O=C(OCC(O)CO)c1ccccc1Nc1ccnc2cc(Cl)ccc12` (stereo unspecified) [GLAFENINE], the DILI positive/negative in the data set with Hepatotoxicity [3] (Liver) and with Hepatotoxicity [2] (Liver) was 1 throughout.

As for `CC(C(=O)O)c1ccc2oc(-c3ccc(Cl)cc3)nc2c1` (stereo unspecified) [BENOXAPROFEN], the DILI positive/negative in the data set on Hepatotoxicity [3] and with Hepatotoxicity [2] was 1 throughout.

With `Cc1nc(C)c2c(n1)N(Cc1ccc(-c3ccccc3-c3nnn[nH]3)cc1)C(=O)CC2` [TASOSARTAN], the DILI positive/negative with Hepatotoxicity [3] and in the data set with Hepatotoxicity [2] was 1 each time.

Compound `COc1cc2c(c(OC)c1OC)-c1ccc(OC)c(=O)cc1[C@@H](NC(C)=O)CC2` [COLCHICINE] came in with a DILI positive/negative in the data set on Hepatotoxicity [1] of 1.

In the data set on Hepatotoxicity [1], `CC[C@]1(O)CC[C@H]2[C@@H]3CCC4=CCCC[C@@H]4[C@H]3CC[C@@]21C` returned a DILI positive/negative of 1.

Regarding `CC(=O)Oc1ccc(C(c2ccc(OC(C)=O)cc2)c2ccccn2)cc1` [BISACODYL], the DILI positive/negative in the data set on Hepatotoxicity [1] was 0.

`NC(=O)OCC(COC(N)=O)c1ccccc1` [FELBAMATE]: the DILI positive/negative in the data set with Hepatotoxicity [3], in the data set with Hepatotoxicity [1] and in the data set with Hepatotoxicity [2] was 1 each time.

For the compound `Nc1ccc(S(=O)(=O)Nc2ccnn2-c2ccccc2)cc1` [SULFAPHENAZOLE], in the data set on Hepatotoxicity [1], the DILI positive/negative amounted to 1.

Consider `CNC(=O)Oc1ccc2c(c1)[C@]1(C)CCN(C)[C@@H]1N2C` [PHYSOSTIGMINE], for which the DILI positive/negative with Hepatotoxicity [1] and with Hepatotoxicity [2] was 0 in each case.

With `C#CCN(C)Cc1ccccc1` [PARGYLINE], the DILI positive/negative with Hepatotoxicity [1] and with Hepatotoxicity [2] was 0 in each case.

Take `CCN(CC)C(=O)N1CCN(C)CC1` [DIETHYLCARBAMAZINE]: the DILI positive/negative with Hepatotoxicity [1] and in the data set with Hepatotoxicity [2] was 1 throughout.

As for `CC(C)Cc1ccc(CC(=O)O)cc1` [IBUFENAC], the DILI positive/negative in the data set with Hepatotoxicity [3] and in the data set with Hepatotoxicity [2] was 1 throughout.

In the case of `Nc1c(CC(=O)O)cccc1C(=O)c1ccc(Br)cc1` [BROMFENAC], the DILI positive/negative with Hepatotoxicity [3] and in the data set on Hepatotoxicity [2] was 1 throughout.

As to `O[C@H]1[C@H](O)[C@@H](O)[C@H](O)[C@@H](O)[C@H]1O` [INOSITOL], the DILI positive/negative in the data set with Hepatotoxicity [1] and in the data set on Hepatotoxicity [2] was 0 throughout.

Take `O=C(O)c1cc(-c2ccccc2)nc2ccccc12` [CINCHOPHEN]: the DILI positive/negative with Hepatotoxicity [3] and in the data set on Hepatotoxicity [2] was 1 throughout.

Regarding `C1CCC(C(CC2CCCCN2)C2CCCCC2)CC1` (stereo unspecified) [PERHEXILINE], the DILI positive/negative in the data set on Hepatotoxicity [3] and with Hepatotoxicity [2] was 1 each time.

In the case of `CC(=O)Oc1cc(C(C)C)c(OCCN(C)C)cc1C` [MOXISYLYTE], the DILI positive/negative in the data set with Hepatotoxicity [3] is given as 1; in the data set on Hepatotoxicity [1], 0.

For `O=C(O)COc1ccc(C(=O)c2cccs2)c(Cl)c1Cl`, the DILI positive/negative with Hepatotoxicity [3] and with Hepatotoxicity [2] was 1 in each case.

As to `CC(C)(C)c1ccc(C(O)CCCN2CCC(C(O)(c3ccccc3)c3ccccc3)CC2)cc1` (stereo unspecified) [TERFENADINE], the results for the DILI positive/negative in the data set with Hepatotoxicity [1] and in the data set on Hepatotoxicity [2] were 1 and 0, respectively.

Regarding `O=C(O)CCCC[C@@H]1SC[C@@H]2NC(=O)N[C@@H]21` [BIOTIN], the DILI positive/negative in the data set with Hepatotoxicity [1] and with Hepatotoxicity [2] was 0 throughout.

In turn, `C=C[C@H]1C[N@@]2CC[C@H]1C[C@H]2[C@H](O)c1ccnc2ccc(OC)cc12` [QUININE] yielded a DILI positive/negative with Hepatotoxicity [1] of 1.

`CN(C)C(=O)Oc1cc(OC(=O)N(C)C)cc(C(O)CNC(C)(C)C)c1` (stereo unspecified) [BAMBUTEROL]: the DILI positive/negative in the data set on Hepatotoxicity [1] and in the data set on Hepatotoxicity [2] was 0 throughout.

Turning to `CC(C)(Oc1ccc(C2CC2(Cl)Cl)cc1)C(=O)O` (stereo unspecified) [CIPROFIBRATE], the DILI positive/negative in the data set with Hepatotoxicity [1] and in the data set with Hepatotoxicity [2] was 1 each time.

Consider `CC(C)NNC(=O)c1ccncc1` [IPRONIAZID], for which the DILI positive/negative with Hepatotoxicity [3] and in the data set on Hepatotoxicity [2] was 1 in each case.

Take `C[N+](C)(C)CCOP(=O)(O)OP(=O)([O-])OC[C@H]1O[C@@H](n2ccc(N)nc2=O)[C@H](O)[C@@H]1O` [CITICOLINE]: the DILI positive/negative in the data set with Hepatotoxicity [1] and with Hepatotoxicity [2] was 0 in each case.

`CC(=O)O[C@H]1C[C@@]2(C)[C@@H](C[C@@H](O)[C@H]3[C@@]4(C)CC[C@@H](O)[C@@H](C)[C@@H]4CC[C@@]32C)/C1=C(\CCC=C(C)C)C(=O)O` [FUSIDIC ACID] returned a DILI positive/negative with Hepatotoxicity [1] of 1.

For `Cc1cc(NS(=O)(=O)c2ccc(N)cc2)no1` [SULFAMETHOXAZOLE], the DILI positive/negative with Hepatotoxicity [3] (Liver) and in the data set with Hepatotoxicity [1] (Liver) was 1 throughout.

Consider `CCc1oc2ccccc2c1C(=O)c1cc(Br)c(O)c(Br)c1` [BENZBROMARONE], for which the DILI positive/negative in the data set with Hepatotoxicity [3] and in the data set on Hepatotoxicity [2] was 1 throughout.

As for `CN1Cc2c(N)cccc2C(c2ccccc2)C1` (stereo unspecified) [NOMIFENSINE], the DILI positive/negative in the data set with Hepatotoxicity [3] and with Hepatotoxicity [2] was 1 each time.

With `CS(=O)(=O)Nc1ccc([N+](=O)[O-])cc1Oc1ccccc1` [NIMESULIDE], the DILI positive/negative with Hepatotoxicity [3] (Liver), in the data set with Hepatotoxicity [1] (Liver) and in the data set with Hepatotoxicity [2] (Liver) was 1 each time.

As to `COc1ccc(C(=O)NCc2cccnc2)cc1C(=O)NCc1cccnc1` [PICOTAMIDE], the DILI positive/negative with Hepatotoxicity [1] turned out to be 0.

Consider `CCCN(CCC)C(=O)Cc1c(-c2ccc(Cl)cc2)nc2ccc(Cl)cn12` [ALPIDEM], for which the DILI positive/negative in the data set on Hepatotoxicity [3] and with Hepatotoxicity [2] was 1 in each case.
